Target: human Gal-3 (hGal-3) (Homo sapiens (Human), UniProt P17931)
Assay: competitive binding assay: binding of biotinylated hGal-3 to microplate-adsorbed asialofetuin (ASF), spectrophotometric
Details: Activity on hGal-3; mean values of several measurements
Method in brief: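 For hGal-1, a variant with all six cysteines replaced by serines is preferred. Either galectin, biotinylated at 300-1000 ng/mL, competes with compound for microplate-bound ASF over 3 h at 4° C; peroxidase/ABTS detection gives IC50, averaged.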

Sequence of human Gal-3 (hGal-3) (P17931 whole entry): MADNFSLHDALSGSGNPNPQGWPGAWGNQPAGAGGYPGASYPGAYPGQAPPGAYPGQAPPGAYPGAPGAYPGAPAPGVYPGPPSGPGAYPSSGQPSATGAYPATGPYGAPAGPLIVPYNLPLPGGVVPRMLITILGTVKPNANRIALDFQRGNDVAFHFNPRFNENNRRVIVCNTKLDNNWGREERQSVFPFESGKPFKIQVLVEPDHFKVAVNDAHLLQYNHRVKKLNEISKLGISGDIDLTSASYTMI

In the case of `CC(=O)O[C@@H]1[C@@H](n2cc(-c3cc(F)c(F)c(F)c3)nn2)[C@@H](O)[C@@H](CO)O[C@H]1C(=O)N(c1cc(Cl)cc(Cl)c1)[C@H]1CCC[C@@H]1O` [Example 1A.1.2, (2R,3R,4S,5R,6R)-2-((3,5-dichlorophenyl)((1S,2S)-2-hydroxycyclopentyl)carbamoyl)-5-hydroxy-6-(hydroxymethyl)-4-(4-(3,4,5-trifluorophenyl)-1H-1,2,3-triazol-1-yl)tetrahydro-2H-pyran-3-yl acetate], the IC50 is reported as 23 nM.

For `CO[C@@H]1[C@@H](n2cc(-c3ccc(C)c(F)c3)nn2)[C@@H](O)[C@@H](CO)O[C@H]1C(=O)N(c1cc(C)cc(C#N)c1)[C@H]1CCC[C@@H]1O` [Example 1.13.8, (2R,3R,4S,5R,6R)-N-(3-cyano-5-methylphenyl)-4-(4-(3-fluoro-4-methylphenyl)-1H-1,2,3-triazol-1-yl)-5-hydroxy-N-((1S,2S)-2-hydroxycyclopentyl)-6-(hydroxymethyl)-3-methoxytetrahydro-2H-pyran-2-carboxamide], the IC50 was 33.2 nM.

`CO[C@@H]1[C@@H](n2cc(-c3cc(F)c(Cl)c(F)c3)nn2)[C@@H](O)[C@@H](CO)O[C@H]1C(=O)N(c1cc(Cl)cc(C#N)c1)[C@H]1CCC[C@@H]1O` [Example 1.5.4, (2R,3R,4S,5R,6R)-4-(4-(4-chloro-3,5-difluorophenyl)-1H-1,2,3-triazol-1-yl)-N-(3-chloro-5-cyanophenyl)-5-hydroxy-N-((1S,2S)-2-hydroxycyclopentyl)-6-(hydroxymethyl)-3-methoxytetrahydro-2H-pyran-2-carboxamide] was tested, and the IC50 was 36.7 nM.

In the case of `CO[C@@H]1[C@@H](n2cc(-c3cc(F)cc(Br)c3)nn2)[C@@H](O)[C@@H](CO)O[C@H]1C(=O)N(c1cc(F)cc(C#N)c1)[C@@H]1CCC[C@H]1O` [Example 1.10.7R, (2R,3R,4S,5R,6R)-4-(4-(3-bromo-5-fluorophenyl)-1H-1,2,3-triazol-1-yl)-N-(3-cyano-5-fluorophenyl)-5-hydroxy-N-((1R,2R)-2-hydroxycyclopentyl)-6-(hydroxymethyl)-3-methoxytetrahydro-2H-pyran-2-carboxamide], the IC50 is reported as 1030 nM.

`CO[C@@H]1[C@@H](n2cc(-c3cc(F)cc(F)c3)nn2)[C@@H](O)[C@@H](CO)O[C@H]1C(=O)N(c1cc(Br)cc(C#N)c1)[C@@H]1CCC[C@H]1O` [Example 1.2.5R, (2R,3R,4S,5R,6R)-N-(3-bromo-5-cyanophenyl)-4-(4-(3,5-difluorophenyl)-1H-1,2,3-triazol-1-yl)-5-hydroxy-N-((1R,2R)-2-hydroxycyclopentyl)-6-(hydroxymethyl)-3-methoxytetrahydro-2H-pyran-2-carboxamide] gave an IC50 of 450 nM.

For `CO[C@@H]1[C@@H](n2cc(-c3cc(F)c(F)c(F)c3)nn2)[C@@H](O)[C@@H](CO)O[C@H]1C(=O)N(c1cc(Br)cc(Br)c1)[C@@H]1CC[C@H]1O` [Example 2.1.11R, (2R,3R,4S,5R,6R)-N-(3,5-dibromophenyl)-5-hydroxy-N-((1R,2R)-2-hydroxycyclobutyl)-6-(hydroxymethyl)-3-methoxy-4-(4-(3,4,5-trifluorophenyl)-1H-1,2,3-triazol-1-yl)tetrahydro-2H-pyran-2-carboxamide], the IC50 was 334 nM.

For `COc1cc(-c2cn([C@H]3[C@@H](O)[C@@H](CO)O[C@@H](C(=O)N(c4cc(Cl)cc(Cl)c4)[C@@H]4CC[C@H]4O)[C@@H]3OC)nn2)cc(F)c1F` [Example 2.3.2R, (2R,3R,4S,5R,6R)-N-(3,5-dichlorophenyl)-4-(4-(3,4-difluoro-5-methoxyphenyl)-1H-1,2,3-triazol-1-yl)-5-hydroxy-N-((1R,2R)-2-hydroxycyclobutyl)-6-(hydroxymethyl)-3-methoxytetrahydro-2H-pyran-2-carboxamide], the IC50 was 190 nM.

`CO[C@@H]1[C@@H](n2cc(-c3cc(F)c(F)c(F)c3)nn2)[C@@H](O)[C@@H](CO)O[C@H]1C(=O)N(c1cc(Cl)cc(Cl)c1)[C@H]1CC[C@@H]1O` [Example 2.1.2, (2R,3R,4S,5R,6R)-N-(3,5-dichlorophenyl)-5-hydroxy-N-((1S,2S)-2-hydroxycyclobutyl)-6-(hydroxymethyl)-3-methoxy-4-(4-(3,4,5-trifluorophenyl)-1H-1,2,3-triazol-1-yl)tetrahydro-2H-pyran-2-carboxamide] gave an IC50 of 51.8 nM.

`CO[C@@H]1[C@@H](n2cc(-c3cc(F)c(Br)c(F)c3)nn2)[C@@H](O)[C@@H](CO)O[C@H]1C(=O)N(c1cc(F)cc(C#N)c1)[C@H]1CC[C@@H]1O` [Example 2.6.7, (2R,3R,4S,5R,6R)-4-(4-(4-bromo-3,5-difluorophenyl)-1H-1,2,3-triazol-1-yl)-N-(3-cyano-5-fluorophenyl)-5-hydroxy-N-((1S,2S)-2-hydroxycyclobutyl)-6-(hydroxymethyl)-3-methoxytetrahydro-2H-pyran-2-carboxamide] was tested, and the IC50 was 183 nM.

For `CO[C@@H]1[C@@H](n2cc(-c3cc(F)cc(Br)c3)nn2)[C@@H](O)[C@@H](CO)O[C@H]1C(=O)N(c1cc(Cl)cc(C#N)c1)[C@H]1CCC[C@@H]1O` [Example 1.10.4, (2R,3R,4S,5R,6R)-4-(4-(3-bromo-5-fluorophenyl)-1H-1,2,3-triazol-1-yl)-N-(3-chloro-5-cyanophenyl)-5-hydroxy-N-((1S,2S)-2-hydroxycyclopentyl)-6-(hydroxymethyl)-3-methoxytetrahydro-2H-pyran-2-carboxamide], the IC50 was 58.3 nM.

Compound `CO[C@@H]1[C@@H](n2cc(-c3ccc(C)c(F)c3F)nn2)[C@@H](O)[C@@H](CO)O[C@H]1C(=O)N(c1cc(Cl)cc(C#N)c1)[C@@H]1CCC[C@H]1O` [Example 1.11.4R, (2R,3R,4S,5R,6R)-N-(3-chloro-5-cyanophenyl)-4-(4-(2,3-difluoro-4-methylphenyl)-1H-1,2,3-triazol-1-yl)-5-hydroxy-N-((1R,2R)-2-hydroxycyclopentyl)-6-(hydroxymethyl)-3-methoxytetrahydro-2H-pyran-2-carboxamide] has an IC50 of 53.9 nM.

For `CO[C@@H]1[C@@H](n2cc(-c3ccc(C#N)c(F)c3)nn2)[C@@H](O)[C@@H](CO)O[C@H]1C(=O)N(c1cc(Br)cc(C#N)c1)[C@H]1CC[C@@H]1O` [Example 2.16.5, (2R,3R,4S,5R,6R)-N-(3-bromo-5-cyanophenyl)-4-(4-(4-cyano-3-fluorophenyl)-1H-1,2,3-triazol-1-yl)-5-hydroxy-N-((1S,2S)-2-hydroxycyclobutyl)-6-(hydroxymethyl)-3-methoxytetrahydro-2H-pyran-2-carboxamide], the IC50 was 243 nM.

`CO[C@@H]1[C@@H](n2cc(-c3cc(F)c(Cl)c(F)c3)nn2)[C@@H](O)[C@@H](CO)O[C@H]1C(=O)N(c1cc(Br)cc(C#N)c1)[C@H]1CCC[C@@H]1O` [Example 1.5.5, (2R,3R,4S,5R,6R)-N-(3-bromo-5-cyanophenyl)-4-(4-(4-chloro-3,5-difluorophenyl)-1H-1,2,3-triazol-1-yl)-5-hydroxy-N-((1S,2S)-2-hydroxycyclopentyl)-6-(hydroxymethyl)-3-methoxytetrahydro-2H-pyran-2-carboxamide] was tested, and the IC50 was 33.9 nM.

`CO[C@@H]1[C@@H](n2cc(-c3cc(F)c(F)c(F)c3)nn2)[C@@H](O)[C@@H](CO)O[C@H]1C(=O)N(c1cc(C)cc(Br)c1)[C@@H]1CCC[C@H]1O` [Example 1.1.12R, (2R,3R,4S,5R,6R)-N-(3-bromo-5-methylphenyl)-5-hydroxy-N-((1R,2R)-2-hydroxycyclopentyl)-6-(hydroxymethyl)-3-methoxy-4-(4-(3,4,5-trifluorophenyl)-1H-1,2,3-triazol-1-yl)tetrahydro-2H-pyran-2-carboxamide] gave an IC50 of 348 nM.

`CO[C@@H]1[C@@H](n2cc(-c3ccc(Cl)cc3)nn2)[C@@H](O)[C@@H](CO)O[C@H]1C(=O)N(c1cc(Cl)cc(C#N)c1)[C@H]1CCC[C@@H]1O` [Example 1.18.4, (2R,3R,4S,5R,6R)-N-(3-chloro-5-cyanophenyl)-4-(4-(4-chlorophenyl)-1H-1,2,3-triazol-1-yl)-5-hydroxy-N-((1S,2S)-2-hydroxycyclopentyl)-6-(hydroxymethyl)-3-methoxytetrahydro-2H-pyran-2-carboxamide] showed an IC50 of 90.7 nM.

`COc1cc(-c2cn([C@H]3[C@@H](O)[C@@H](CO)O[C@@H](C(=O)N(c4cc(Cl)cc(Cl)c4)[C@H]4CCC[C@@H]4O)[C@@H]3OC)nn2)cc(F)c1F` [Example 1.3.2, (2R,3R,4S,5R,6R)-N-(3,5-dichlorophenyl)-4-(4-(3,4-difluoro-5-methoxyphenyl)-1H-1,2,3-triazol-1-yl)-5-hydroxy-N-((1S,2S)-2-hydroxycyclopentyl)-6-(hydroxymethyl)-3-methoxytetrahydro-2H-pyran-2-carboxamide] was tested, and the IC50 was 29.5 nM.

`CO[C@@H]1[C@@H](n2cc(-c3cc(F)c(C)c(F)c3)nn2)[C@@H](O)[C@@H](CO)O[C@H]1C(=O)N(c1cc(Cl)cc(Cl)c1)[C@H]1CC[C@@H]1O` [Example 2.4.2, (2R,3R,4S,5R,6R)-N-(3,5-dichlorophenyl)-4-(4-(3,5-difluoro-4-methylphenyl)-1H-1,2,3-triazol-1-yl)-5-hydroxy-N-((1S,2S)-2-hydroxycyclobutyl)-6-(hydroxymethyl)-3-methoxytetrahydro-2H-pyran-2-carboxamide] gave an IC50 of 38 nM.

For `CO[C@@H]1[C@@H](n2cc(-c3cc(F)cc(Br)c3)nn2)[C@@H](O)[C@@H](CO)O[C@H]1C(=O)N(c1cc(C)cc(C#N)c1)[C@H]1CCC[C@@H]1O` [Example 1.10.8, (2R,3R,4S,5R,6R)-4-(4-(3-bromo-5-fluorophenyl)-1H-1,2,3-triazol-1-yl)-N-(3-cyano-5-methylphenyl)-5-hydroxy-N-((1S,2S)-2-hydroxycyclopentyl)-6-(hydroxymethyl)-3-methoxytetrahydro-2H-pyran-2-carboxamide], the IC50 was 157 nM.

`CO[C@@H]1[C@@H](n2cc(-c3cc(F)c(F)c(F)c3)nn2)[C@@H](O)[C@@H](CO)O[C@H]1C(=O)N(c1cc(Br)cc(C#N)c1)[C@H]1CC[C@@H]1O` [Example 2.1.5, (2R,3R,4S,5R,6R)-N-(3-bromo-5-cyanophenyl)-5-hydroxy-N-((1S,2S)-2-hydroxycyclobutyl)-6-(hydroxymethyl)-3-methoxy-4-(4-(3,4,5-trifluorophenyl)-1H-1,2,3-triazol-1-yl)tetrahydro-2H-pyran-2-carboxamide] showed an IC50 of 44.5 nM.

— patent publication US20230348442A1, “GALECTIN-3 INHIBITING 2-HYDROXYCYCLOALKANE-1-CARBAMOYL DERIVATIVES” (Idorsia Pharmaceuticals Ltd, priority 2020, published 2023)
